For data set [1] the following is noted: mice, oral, cited from earlier work.
The nature of data set [2]: logP by HPLC method. It is filed as physicochemical.

Data on two molecules can be found in PMC7914304 (Bioorganic & medicinal chemistry, 2020).

Read-outs that look alike come from different tables or passages of the source.

Turning to `CC[C@H](C)C(=O)N1CCC(NC(=O)Nc2ccc(OC(F)(F)F)cc2)CC1` [compound 3], in data set [1] (0.3 mg/kg), the area under the curve (AUC) is 2.53 µM·h, the Cmax is 195 nM, the T1/2 is 7.7 h and the time to peak (Tmax) is recorded as 4 h. In data set [2], this molecule displayed a logP of 3.97.

In the case of `CC(=O)N1CCC(NC(=O)NC23CC4CC(CC(C4)C2)C3)CC1` [inhibitor 1], in data set [1] (0.5 mg/kg), the area under the curve (AUC) was 0.183 µM·h, the Cmax was 30 nM, the T1/2 was 3 h and the Tmax was 1 h.
